Source: ChEMBL document CHEMBL1121613

The compounds below were run against Adrenergic receptor alpha (Homo sapiens) (UniProt P35348+P08913+P18825+P25100+P35368+P18089) (assay: Blocking activity towards Alpha adrenergic receptor of rabbit aortic tissue preparation was determined). Details: Oryctolagus cuniculus; target entry is the homologue from another species.

Compound	-Log KB
c1ccc(C[C@H]2CN=C(Cc3cccc4ccccc34)N2)cc1	6.57
C[C@H]1CN=C(Nc2c(Cl)cccc2Cl)N1	5.27
c1ccc(C[C@@H]2CN=C(Cc3cccc4ccccc34)N2)cc1	6.34
C[C@H]1CN=C(Cc2cccc3ccccc23)N1	5.76
c1ccc(CC2NC[C@H](Cc3ccccc3)N2)cc1 (stereo partly drawn)	5
C[C@@H]1CN=C(Nc2c(Cl)cccc2Cl)N1	5.08
C[C@@H]1CN=C(Cc2cccc3ccccc23)N1	5.6
c1ccc(CC2NC[C@@H](Cc3ccccc3)N2)cc1 (stereo partly drawn)	4.98
